From paper PMC9649909, “Wnt-pathway inhibitors with selective activity against triple-negative breast cancer: From thienopyrimidine to quinazoline inhibitors” (Frontiers in Pharmacology, 2022)
Like-named read-outs stand apart in the source and are kept apart here.

Experiments:
[1] = test system: β-catenin-dependent Wnt-pathway; assay: TopFlash luciferase reporter assay, CHIR99021-stimulated, HCC1395; type: cell-based; settings: for GSK HCC1395 Comments: Table S2; for TopFlash activity in words: HCC1395, CHIR99021; for IC50 / Emax: Homo sapiens; for Emax: read-out: HCC1395 TopFlash Efficacy
Description: Both stimulations abolish formation of the destruction complex, a multiprotein complex consisting of Axin, adenomatous polyposis coli (APC), glycogen synthase kinase three beta (GSK3β), and casein kinase one alpha (CK1α). Upon inactivation of the complex, β-catenin accumulates in the cytoplasm and translocates into the nucleus where it interacts with transcription factors. These downstream events are quantified by a Luciferase transcription-based readout assay (TopFlash assay).

HCC1395 cells = assay: in vitro; settings: for HCC1395 Cytotoxicity Efficacy: human
Method: (§1) The simplicity of the scaffold combined with synthetic accessibility allows building a library of compounds and performing structure activity relationship (SAR) studies of the three main parts of the molecule: the top part, the linker and the core (Figure 2).
(§2) The synthesized compounds were used to explore SAR of three defined areas of investigation (Figure 2). All compounds were tested in the HCC1395 TNBC cell line using the GSK3β inhibitor to induce β-catenin signaling since 4a acted downstream of GSK3β (Figure 2). Both inhibition of β-catenin signaling measured by the TopFlash reporter and cytotoxicity measured by the Renilla reporter were assessed.
(§3) The Wnt3a or CHIR99021-stimulated luciferase activity in HCC1395 TNBC cell line stably transfected with the TopFlash reporter was analyzed essentially as described for the BT-20 TNBC cell line ([Shaw et al., 2019b]; [Koval et al., 2021]). Reporter cells were seeded at 10,000 cells/well in a white opaque 384-well plate in the final volume of 20 μl of DMEM medium supplemented with 10% FCS. The cells were maintained incubated at 37°C, 5% CO2 overnight for attachment. Subsequently, they were transfected by a plasmid encoding constitutively expressed Renilla luciferase under the CMV promoter overall as described in the manufacturer’s protocol using 12 μg/ml of DNA and 40 μl/ml XtremeGENE nine reagent. The next day, the medium in each well was replaced with a 10 μl of fresh medium containing compound of interest, and, after 1 h of preincubation with the compounds, additional 10 μl of medium supplemented with Wnt3a [purified as described ([Willert et al., 2003]; [Koval and Katanaev, 2011])] or CHIR99021 were added creating respective final concentrations of 2.5 μg/ml or 5 μM of each. In case of other signal transduction reporters, no additional stimulation was performed. Compound dilutions were prepared by serial dilution in DMSO and diluted with the amount of medium necessary to obtain their final concentrations indicated on the figures and tables and maintain concentration of DMSO of 0.5% in all assay points. After overnight incubation, the supernatant in each well was removed, and the luciferase activity was measured as described ([Dyer et al., 2000]; [Huber et al., 2021]; [Pellissier et al., 2021]). The culture medium was completely removed from all wells of the plate. Finally, the luciferase activity of the firefly and Renilla luciferases was detected sequentially in individual wells of a 384-well plate through injection of corresponding measurement solutions and immediate reading (400 ms integration time) in Infinite M Plex multifunctional plate reader with injection module.

in vitro = settings: human
Method: as §1, §2, §3

[2] = test system: MDA-MB-468 TNBC cell line; assay: MTT survival assay MDA-MB-468; type: cell-based; settings: Homo sapiens, MDA-MB-468; Table S2
Method: (§4) Indicated TNBC cell lines were detached and resuspended at 120,000 cells/ml and added into each well of a transparent 384-well plate in the final volume of 20 µl/well. The cells were maintained in DMEM containing 10% FBS at 37°C, 5% CO2 overnight. Next day, the medium in each well was replaced by 40 μl of the fresh one containing the indicated concentrations of compounds. In case of drug combination experiments, each compound dilution was delivered in corresponding well in 20 μl of medium. […] After incubation for 3–4 days, depending on the cell line, the medium in each well was replaced by 25 μl of 0.5 mg/ml Thiazolyl blue solution in 1xPBS following by incubation for 3 h at 37°C. Then the solution was removed and 25 μl DMSO was added into each well. Absorbance at 510 nm was measured in a Tecan Infinite M200 PRO plate reader.

HCC1395 TNBC cell line = assay: MTT survival assay HCC1395; type: cell-based; settings: Homo sapiens, HCC1395; Table S2; read-out: MTT HCC-1395 IC50
Method: as §4

[3] = test system: MDA-MB-231 TNBC cell line; assay: MTT survival assay MDA-MB-231; type: cell-based; settings: Table S2; for IC50: Homo sapiens, MDA-MB-231, read-out: MTT MDA-MB-231 IC50
Method: as §4

HCC1806 TNBC cell line = assay: MTT survival assay HCC1806; type: cell-based; settings: Homo sapiens, HCC1806
Method: as §4

[4] = test system: non-cancerous breast epithelial cell line MCF10a; assay: MTT survival assay MCF10a; type: cell-based; settings: Homo sapiens, MCF-10A; Table S2; read-out: MTT MCF10 IC50
Method: as §4

BT-20 TNBC cell line = assay: MTT survival assay BT-20; type: cell-based; settings: Homo sapiens, BT-20; Table S2; read-out: MTT BT-20 IC50
Method: as §4

[5] = HCC1395, HCC1395, stimulation with CHIR99021 (GSK3β inhibitor), read-out: HCC1395 TopFlash IC50
[6] = Table S2, read-out: MTT HCC1806 IC50
[7] = HCC1395, HCC1395, stimulation with CHIR99021 (GSK3β inhibitor)
[8] = HCC1395, Table S2, TopFlash, GSK3β inhibitor stimulation, read-out: GSK HCC1395 IC50

TopFlash activity in words [1]	IC50 [1, 5] [µM]	Compound	GSK HCC1395 Comments [1]	HCC1395 Cytotoxicity Efficacy (HCC1395 cells) [%]	IC50 (in vitro; HCC1395 Cytotoxicity IC50) [µM]	also measured
	3.19 ± 1.64	Clc1ccc(CNc2ncnc3sccc23)cc1 [Compound 4j, N-(4-chlorobenzyl)thieno[2,3-d]pyrimidin-4-amine]			> 50	IC50 [2]: 3.93 µM; IC50 (HCC1395 TNBC cell line): 1.42 µM; IC50 [3]: 45.3 µM; MTT MDA-MB-231 plateau [3]: 92.63; IC50 (HCC1806 TNBC cell line; [6]): 26.2 µM; Emax [1, 7]: 74.6 ± 12%; fold improvement in the activity compared to 4a ([1]; TopFlash IC50 vs 4a): 2 fold; IC50 [4]: 20.4 µM; IC50 (BT-20 TNBC cell line): 6.29 µM
	> 50	Fc1cccc(CNc2ncnc3sccc23)c1 [Compound 4f, N-(3-fluorobenzyl)thieno[2,3-d]pyrimidin-4-amine]	Inactive			
no longer active	58.2 ± 1.48	COc1cccc(CNc2cc(Cl)ncn2)c1 [Compound 11, 6-chloro-N-(3-methoxybenzyl)pyrimidin-4-amine]				Emax [1, 7]: 100%; IC50 [1, 8]: > 50 µM
	2.1 ± 1.64	CC(Nc1ncnc2sccc12)c1ccc(F)cc1 (centres unmarked) [Compound 5c, N-(1-(4-fluorophenyl)ethyl)thieno[2,3-d]pyrimidin-4-amine]			> 50	Emax [1, 7]: 46.9 ± 8.41%
	> 100	COc1cccc(CNc2nccc3ccccc23)c1 [Compound 13, N-(3-methoxybenzyl)isoquinolin-1-amine]			> 100	IC50 [1, 8]: > 50 µM; GSK HCC1395 Renilla Comments (HCC1395 cells): Non-toxic
no longer active	> 100	COc1cccc(CNc2ncnc3c(C)csc23)c1 [Compound 10, N-(3-methoxybenzyl)-7-methylthieno[3,2-d]pyrimidin-4-amine]	Inactive		> 100	IC50 [1, 8]: > 50 µM; GSK HCC1395 Renilla Comments (HCC1395 cells): Non-toxic
abrogated the activity	> 50	COc1ccc(CNc2ncnc3sccc23)cc1 [Compound 4d, N-(4-methoxybenzyl)thieno[2,3-d]pyrimidin-4-amine]	Inactive			IC50 [2]: 14.2 µM; IC50 (HCC1395 TNBC cell line): > 50 µM; IC50 [3]: > 50 µM; MTT MDA-MB-231 Comments [3]: Inactive; IC50 (HCC1806 TNBC cell line; Figure 3B heatmap, read-out: IC50, μM (HCC1806)): > 50 µM; IC50 (HCC1806 TNBC cell line; [6]): 46.5 µM; IC50 [4]: > 50 µM; IC50 (BT-20 TNBC cell line): 39.8 µM

Continued, compound first:

Compound	TopFlash activity in words [1]	IC50 [1, 5] [µM]	GSK HCC1395 Comments [1]	HCC1395 Cytotoxicity Efficacy (HCC1395 cells) [%]	IC50 (in vitro; HCC1395 Cytotoxicity IC50) [µM]	also measured
COc1ccccc1CNc1ncnc2ccccc12 [Compound 9a, N-(2-methoxybenzyl)quinazolin-4-amine]			Toxic	100 ± 0	29 ± 14.5	
c1ccc(Nc2ncnc3sccc23)cc1 [Compound 5f, N-phenylthieno[2,3-d]pyrimidin-4-amine]	inactive	> 50				
N#Cc1cccc(CNc2ncnc3sccc23)c1 [Compound 4l, 3-((thieno[2,3-d]pyrimidin-4-ylamino)methyl)benzonitrile]			Toxic	32.2 ± 10.5	10 ± 3.36	
COc1cccc(CNc2ccncn2)c1 [Compound 12, N-(3-methoxybenzyl)pyrimidin-4-amine]	no longer active	> 100	Inactive			IC50 [1, 8]: > 50 µM
Clc1ccccc1CNc1ncnc2sccc12 [Compound 4h, N-(2-chlorobenzyl)thieno[2,3-d]pyrimidin-4-amine]			Toxic	67.1 ± 7.8	8.61 ± 4.38	
Clc1ccc(CCNc2ncnc3ccccc23)cc1 [Compound 9g, N-(4-chlorophenethyl)quinazolin-4-amine]			Toxic	100 ± 0		IC50 (in vitro): 13 ± 1.45 µM
CCN(Cc1cccc(OC)c1)c1ncnc2sccc12 [Compound 5i, N-ethyl-N-(3-methoxybenzyl)thieno[2,3-d]pyrimidin-4-amine]			Toxic	64.1 ± 9.3	8.3 ± 3.79	
COc1cccc(CCNc2ncnc3sccc23)c1 [Compound 5n, N-(3-methoxyphenethyl)thieno[2,3-d]pyrimidin-4-amine]	not tolerated	> 50	Inactive			
Cc1ccc(C(C)Nc2ncnc3sccc23)cc1 (centres unmarked) [Compound 5e, N-(1-(p-tolyl)ethyl)thieno[2,3-d]pyrimidin-4-amine]		0.63 ± 0.21			> 50	Emax [1, 7]: 47 ± 9.67%
N#Cc1ccccc1CNc1ncnc2sccc12 [Compound 4k, 2-((thieno[2,3-d]pyrimidin-4-ylamino)methyl)benzonitrile]		> 50	Inactive			
COc1cccc(C(=O)Nc2ncnc3sccc23)c1 [Compound 7, 3-methoxy-N-(thieno[2,3-d]pyrimidin-4-yl)benzamide]		> 50	Inactive			
CC(Nc1ncnc2ccccc12)c1ccc(F)cc1 (centres unmarked) [Compound 9h, N-(1-(4-fluorophenyl)ethyl)quinazolin-4-amine]		10.7 ± 2.33		51.1 ± 21.3	16.6 ± 6.59	Emax [1, 7]: 66.4 ± 6.9%
COc1cccc(CNc2ccnc3ccccc23)c1 [Compound 16, N-(3-methoxybenzyl)quinolin-4-amine]			Toxic	39.4 ± 13.0	18.7	
N#Cc1ccc(CNc2ncnc3sccc23)cc1 [Compound 4m, 4-((thieno[2,3-d]pyrimidin-4-ylamino)methyl)benzonitrile]	abrogated the activity	> 50	Inactive			GSK HCC1395 Renilla Comments (HCC1395 cells): Non-toxic
Fc1ccccc1CNc1ncnc2sccc12 [Compound 4e, N-(2-fluorobenzyl)thieno[2,3-d]pyrimidin-4-amine]			Toxic		7.45 ± 2.08	Cytotoxicity (Renilla) in words (HCC1395 cells): toxicity
COc1cccc(C(C)Nc2ncnc3sccc23)c1 (centres unmarked) [Compound 5b, N-(1-(3-methoxyphenyl)ethyl)thieno[2,3-d]pyrimidin-4-amine]	inactive	> 50				GSK HCC1395 Renilla Comments (HCC1395 cells): Non-toxic
